For 18 molecules, IC50 results are on record in US20240336606A1 (Suzhou Zelgen Biopharmaceuticals Co., Ltd., priority 2020, published 2024).

In test [1] the target is T1, binding of KRAS^G12C to SOS1 (Homo sapiens, UniProt Q07889).
T1 construct: Tag1 (unspecified)
T1 sequence (Q07889 1-1333): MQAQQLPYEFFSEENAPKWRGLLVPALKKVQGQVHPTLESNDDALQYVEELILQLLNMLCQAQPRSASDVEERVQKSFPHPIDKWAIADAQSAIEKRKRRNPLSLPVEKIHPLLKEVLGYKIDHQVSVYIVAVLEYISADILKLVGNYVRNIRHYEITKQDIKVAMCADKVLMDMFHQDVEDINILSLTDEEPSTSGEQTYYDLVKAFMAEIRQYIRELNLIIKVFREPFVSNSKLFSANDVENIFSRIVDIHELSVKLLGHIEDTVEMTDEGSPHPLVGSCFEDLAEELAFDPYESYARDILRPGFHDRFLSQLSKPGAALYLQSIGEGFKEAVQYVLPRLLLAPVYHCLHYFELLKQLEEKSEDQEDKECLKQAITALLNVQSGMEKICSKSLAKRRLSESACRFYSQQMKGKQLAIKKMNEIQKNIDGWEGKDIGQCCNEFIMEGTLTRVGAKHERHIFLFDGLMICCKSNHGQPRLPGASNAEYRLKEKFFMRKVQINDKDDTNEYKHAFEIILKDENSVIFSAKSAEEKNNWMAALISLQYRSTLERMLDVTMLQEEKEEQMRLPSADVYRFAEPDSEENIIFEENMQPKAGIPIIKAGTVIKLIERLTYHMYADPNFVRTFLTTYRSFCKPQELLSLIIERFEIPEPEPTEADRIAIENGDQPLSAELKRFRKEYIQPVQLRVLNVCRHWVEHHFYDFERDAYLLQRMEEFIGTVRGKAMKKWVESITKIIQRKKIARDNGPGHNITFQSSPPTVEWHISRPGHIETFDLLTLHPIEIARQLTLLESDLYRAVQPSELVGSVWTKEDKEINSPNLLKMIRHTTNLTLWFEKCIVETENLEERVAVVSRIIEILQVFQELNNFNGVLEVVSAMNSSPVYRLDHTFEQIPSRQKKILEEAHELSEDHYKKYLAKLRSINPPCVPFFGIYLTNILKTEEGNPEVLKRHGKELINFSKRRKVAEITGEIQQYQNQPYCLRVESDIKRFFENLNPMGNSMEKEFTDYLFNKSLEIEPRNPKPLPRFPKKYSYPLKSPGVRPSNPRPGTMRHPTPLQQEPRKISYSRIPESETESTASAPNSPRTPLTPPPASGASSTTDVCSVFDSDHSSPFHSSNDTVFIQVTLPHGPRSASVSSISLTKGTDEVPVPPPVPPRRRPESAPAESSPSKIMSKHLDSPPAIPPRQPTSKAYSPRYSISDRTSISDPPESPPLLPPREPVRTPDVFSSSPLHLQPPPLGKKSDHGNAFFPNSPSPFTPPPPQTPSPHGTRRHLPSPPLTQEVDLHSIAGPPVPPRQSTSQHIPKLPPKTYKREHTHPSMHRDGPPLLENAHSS
Kind of test: Inhibition of the binding of KRAS^G12C to SOS1. The following applies: Tag1-SOS1 / Tag2-KRAS^G12C, 2 h incubation at room temperature; read-out: IC50 (nM), inhibitory activity on the binding of KRAS^G12C to SOS1. The gist of the method:
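Tag1-SOS1 and Tag2-KRAS^G12C mixed with serially diluted compound (final 0.25% DMSO), then anti-Tag1-Tb3+ and anti-Tag2-XL665 added for 2 h at room temperature. IC50 from curve fit of the TR-FRET signal.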

The subject of a further test is H358 cells. Put plainly: Inhibition of H358 cell proliferation (CellTiter-Glo 3D, 7 days). In kind it is cell-based. The following applies: Homo sapiens, 168 h, NCI-H358, 7 days, read-out: IC50 (nM), inhibitory activity on H358 cell proliferation. How it is done: • (a) The cells were thawed in T75 cell culture flasks:
• (b) When 80-90% cell confluence was achieved, the cells were passaged.
The diluted test compounds were added to a 384-well cell culture plate using a nanoliter pipetting system, and duplicate wells were set. An equal volume of medium was added to the positive control group; an equal volume of DMSO was added to the negative control group. The plate was centrifuged at 1000 rpm at room temperature for 1 min.
The cells were inoculated into a) 384-well culture plate, an equal volume of cells was added to the negative control group, and only an equal volume of medium was added to the positive control group. The plate was centrifuged at 1000 rpm at room temperature for 1 min. The final concentration of DMSO in the final compounds was 0.5%. The plate was incubated in a thermostatic incubator at 37° C. with 5% CO2 for 7 days.
CellTiter-Glo® 3D was added to b) 384-well cell culture plate at 20 μL/well. The plate was shaken at 320 rpm in the dark for 20 min, and incubated at room temperature in the dark for 2 h. The luminescence values were read using an Envision multi-mode microplate reader.
The inhibition rates of the compounds at different concentrations were calculated in Excel, and then inhibition curves were plotted and relevant parameters including minimum inhibition rate, maximum inhibition rate and IC50 were calculated using GraphPad Prism software.

In the case of `COc1cc2nc(C)nc(N[C@H](C)c3cc(N)cc(C(F)(F)F)c3)c2cc1OCCOC1COC1` [Example 44, (R)—N-(1-(3-Amino-5-(trifluoromethyl)phenyl)ethyl)-7-methoxy-2-methyl-6-(2-(oxetan-3-yloxy)ethoxy)quinazolin-4-amine], the IC50 in test [1] is 4.4 nM; in the test with H358 cells it was 25 nM.
In the case of `COCCOc1cc2c(N[C@H](C)c3cc(N)cc(C(F)(F)C(C)(C)O)c3)nc(C)nc2cc1OC` [Example 74], the results for the IC50 (in test [1]; with H358 cells) were 3.1 nM and 6.5 nM, respectively.
With `COCCOc1cc2c(N[C@H](C)c3cc(C(F)(F)C(C)(C)O)ccc3F)nc(C)nc2cc1OC` [Example 79, (R)-1,1-Difluoro-1-(4-fluoro-3-(1-((7-methoxy-6-(2-methoxyethoxy)-2-methylquinazolin-4-yl)amino)ethyl)phenyl)-2-methylpropan-2-ol], the figures for the IC50 (in test [1]; in the test on H358 cells) were 19 nM and 419 nM, respectively.
Consider `COCCOc1cc2c(N[C@H](C)c3cc(F)cc(C(F)(F)C(C)(C)O)c3)nc(C)nc2cc1OC` [Example 80, (R)-1,1-Difluoro-1-(3-fluoro-5-(1-((7-methoxy-6-(2-methoxyethoxy)-2-methylquinazolin-4-yl)amino)ethyl)phenyl)-2-methylpropan-2-ol], for which the IC50 in test [1] is 6.2 nM; with H358 cells, 53 nM.
For `COc1cc2nc(C)nc(N[C@H](C)c3cc(N)cc(C(F)(F)F)c3)c2cc1OCCOC1CC1(F)F` (stereo partly drawn) [Example 82, N—((R)-1-(3-Amino-5-(trifluoromethyl)phenyl)ethyl)-6-(2-(2,2-difluorocyclopropyloxy)ethoxy)-7-methoxy-2-methylquinazolin-4-amine] the same measures were 4.5 nM and 33 nM.
For `COCCOc1cc2c(N[C@H](C)c3cc(N)cc(OC(F)(F)F)c3)nc(C)nc2cc1OC` [Example 83, (R)—N-(1-(3-Amino-5-(trifluoromethoxy)phenyl)ethyl)-7-methoxy-6-(2-methoxyethoxy)-2-methylquinazolin-4-amine] the same measures were 15 nM and 187 nM.
For `COCCOc1cc2c(N[C@H](C)c3cccc(C(F)(F)CO)c3)nc(C)nc2cc1OC` [Example 85] the same measures were 4.1 nM and 39 nM.
Take `COCCOc1cc2nc(C)nc(N[C@H](C)c3cccc(C(F)(F)C(C)(C)O)c3F)c2cc1OCCOC` [Example 86, (R)-1-(3-(1-((6,7-Bis(2-methoxyethoxy)-2-methylquinazolin-4-yl)amino)ethyl)-2-fluorophenyl)-1,1-difluoro-2-methylpropan-2-ol]: the IC50 in test [1] was found to be 4.4 nM; in the test with H358 cells, 11.8 nM.
Turning to `COCCOc1cc2c(N[C@H](C)c3cccc(C(F)(F)C(C)(C)O)c3F)nc(C)nc2cc1C#N` [Example 89, (R)-4-((1-(3-(1,1-Difluoro-2-hydroxy-2-methylpropyl)-2-fluorophenyl)ethyl)amino)-6-(2-methoxyethoxy)-2-methylquinazoline-7-carbonitrile], the IC50 came out at 6.7 nM in test [1] and 130 nM in the test on H358 cells.
As to `COc1cc2nc(C)nc(N[C@H](C)c3cc(N)cc(C(F)(F)C(C)(C)O)c3)c2cc1OCCOC1CC1` [Example 116, (R)-1-(3-Amino-5-(1-((6-(2-cyclopropoxyethoxy)-7-methoxy-2-methylquinazolin-4-yl)amino)ethyl)phenyl)-1,1-difluoro-2-methylpropyl-2-ol], the IC50 with H358 cells is 4.29 nM.
On the same count and under the same terms, as for `COc1cc2nc(C)nc(N[C@H](C)c3cc(N)cc(C(F)(F)C(C)(C)O)c3)c2cc1OCCOC1COC1` [Example 117, (R)-1-(3-Amino-5-(1-((7-methoxy-2-methyl-6-(2-(oxetan-3-yloxy)ethoxy)quinazolin-4-yl)amino)ethyl)phenyl)-1,1-difluoro-2-methylpropyl-2-ol], the figure is 2.65 nM; as for `COc1cc2nc(C)nc(N[C@H](C)c3cc(N)cc(C(F)(F)C(C)(C)O)c3)c2cc1OCCOC1CC1(F)F` (stereo partly drawn) [Example 118], 2.65 nM.
For the molecule `COCCOCCOc1cc2c(N[C@H](C)c3cc(N)cc(C(F)(F)C(C)(C)O)c3)nc(C)nc2cc1OC` [Example 119, (R)-1-(3-Amino-5-(1-(7-methoxy-6-(2-(2-methoxyethoxy)ethoxy)-2-methylquinazolin-4-yl)amino)ethylphenyl)-1,1-difluoro-2-methylpropan-2-ol], the IC50 in the test with H358 cells came to 11.5 nM.
Same read-out and setting: as for `COCC(COC)Oc1cc2c(N[C@H](C)c3cc(N)cc(C(F)(F)C(C)(C)O)c3)nc(C)nc2cc1OC` [Example 122], the figure is 15.6 nM.
On to `COCCOc1cc2c(N[C@H](C)c3cc(N)cc(C(F)(F)C(C)(C)O)c3)nc(C)nc2cc1-c1cc[nH]n1` [Example 123, (R)-1-(3-Amino-5-(1-((6-(2-methoxyethoxy)-2-methyl-7-(1H-pyrazolyl-3-yl)quinazolin-4-yl)amino)ethyl)phenyl)-1,1-difluoro-2-methylpropan-2-ol], for which, in the test with H358 cells, the IC50 amounted to 32.8 nM.
On the same count and under the same terms, as for `C#Cc1cc2nc(C)nc(N[C@H](C)c3cccc(C(F)(F)C(C)(C)O)c3F)c2cc1OCCOC` [Example 153, (R)-1-(3-(1-(7-ethynyl-6-(2-methoxyethoxy)-2-methylquinazoline-4-amino)ethyl)-2-fluorophenyl)-1,1-difluoro-2-methylpropan-2-ol], the figure is 34.7 nM.
Take `C#Cc1cc2nc(C)nc(N[C@H](C)c3cccc(C(F)(F)C(C)(C)O)c3F)c2cc1OCCOC1COC1` [Example 157, (R)-1-(3-(1-((7-Ethynyl-2-methyl-6-(2-(oxetan-3-yloxy)ethoxy)quinazolin-4-yl)amino)ethyl)-2-fluorophenyl)-1,1-difluoro-2-methylpropan-2-ol]: the IC50 in the test with H358 cells came out at 15.8 nM.
Still for that read-out and setting: as for `C#Cc1cc2nc(C)nc(N[C@H](C)c3cc(N)cc(C(F)(F)C(C)(C)O)c3)c2cc1OCCOC` [Example 163, (R)-1-(3-Amino-5-(1-((7-ethynyl-6-(2-methoxyethoxy)-2-methylquinazolin-4-yl)amino)ethyl)phenyl)-1,1-difluoro-2-methylpropan-2-ol], the figure is 14.5 nM.
